According to PubChem BioAssay (NCI):
“And” between values parts separate entries of the source, which are not always exact repeats. Equal values may be shown once.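 Step 1: Grow cells in 96-well plates. Step 2: Expose to compound for 48 hours at 5 concentrations. Step 3: Interpolate endpoints linearly; if unreached, use highest concentration. Here, GI50 denotes the concentration required for 50% inhibition of growth. TGI: concentration producing complete growth inhibition.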

What was measured:
Assay in all cases: NCI tumour cell line growth inhibition, 48 h
DMS 273 small cell lung = tested on: DMS 273 small cell lung
P388/ADR leukemia = tested on: P388/ADR leukemia
LXFL 529 NSCLC = tested on: LXFL 529 NSCLC
DMS 114 small cell lung = tested on: DMS 114 small cell lung
P388 leukemia = tested on: P388 leukemia
DLD-1 colon = tested on: DLD-1 colon
M19-MEL melanoma = tested on: M19-MEL melanoma
HOP-18 NSCLC = tested on: HOP-18 NSCLC
SNB-78 CNS = tested on: SNB-78 CNS
KM20L2 colon = tested on: KM20L2 colon
XF 498 CNS = tested on: XF 498 CNS

Compound | GI50 (DMS 273 small cell lung) [µM] | TGI (DMS 273 small cell lung) | GI50 (P388/ADR leukemia) [µM] | TGI (P388/ADR leukemia) | TGI (LXFL 529 NSCLC) [µM] | GI50 (DMS 114 small cell lung) [µM] | TGI (DMS 114 small cell lung) | GI50 (P388 leukemia) [µM] | TGI (P388 leukemia) | GI50 (DLD-1 colon) [µM] | TGI (DLD-1 colon) | GI50 (M19-MEL melanoma) [µM] | TGI (M19-MEL melanoma) | GI50 (HOP-18 NSCLC) [µM] | TGI (HOP-18 NSCLC) | GI50 (SNB-78 CNS) [µM] | TGI (SNB-78 CNS) | GI50 (KM20L2 colon) [µM] | TGI (KM20L2 colon) | TGI (XF 498 CNS) [µM]
CCN(CC)CC[n+]1ccc2c(C)c3[nH]c4ccc(O)cc4c3c(C)c2c1 | 1.93 | 19.6 µM and 20.7 µM | 5.08 | 64.7 µM and 91.7 µM | 20 | 0.652 | 8.87 µM and 15.4 µM | 0.0256 | 2.48 µM and 4.85 µM | 7.81 | > 96.4 µM and 102 µM | 0.954 | 5.48 µM and 6.71 µM | 5.6 | 17.9 µM and 42.8 µM | 5.71 | 44.1 µM and 59.5 µM | 6.95 | 35.8 µM and 46.4 µM | 
CN(C)CCNC(=O)c1cc(Cl)cc2cc3ccccc3nc12 |  | 2.71 µM |  |  |  |  | 2.21 µM |  | 20.1 µM |  | 5.35 µM |  | 3.56 µM |  | 21.3 µM |  | 7.56 µM |  | 1.42 µM | 3.37
Cc1[nH]c(=O)[nH]c(=O)c1/C=C/C(=O)NC(CO)CS(=O)CS(C)=O (stereo unspecified) |  | 117 µM |  | 225 µM |  |  | 42 µM |  | 74.8 µM |  | 253 µM |  | 74.3 µM |  | 551 µM |  | 97.5 µM |  | 328 µM | 8.12
COC(=O)C1=C(C)N2CCSC2(C)C(C(=O)OC)C1c1cccc(Cl)c1 (stereo unspecified) |  |  |  |  | 72.5 |  | 44.6 µM |  |  |  |  |  | 31.9 µM |  |  |  |  |  | 43.4 µM | 
S=c1c2[nH]cnc2ncn1CCSC1=NC=NC2=NC=NC21 (stereo unspecified) |  | > 100 µM |  |  |  |  | > 100 µM |  |  |  | > 100 µM |  | > 100 µM |  | > 100 µM |  | > 100 µM |  | > 100 µM | > 100
CC[C@@]1(O)C(=O)OCc2c1cc1n(c2=O)Cc2cc3ccccc3nc2-1 |  | 0.385 µM |  | 0.677 µM | 3.54 |  | 3.27 µM |  | 0.42 µM |  | 25.7 µM |  | 1.35 µM |  | 2.14 µM |  | > 20.5 µM |  | 3.65 µM | 0.259
Nc1ccc(O)c2c1C(=O)c1c(N)ccc(O)c1C2=O |  | > 100 µM |  |  | > 100 |  | > 100 µM |  |  |  | > 100 µM |  | > 100 µM |  |  |  | > 100 µM |  |  | > 100
CC1C(=O)CC(c2cccs2)N(N=O)C1c1cccs1 (stereo unspecified) |  | > 100 µM |  | 40.8 µM |  |  |  |  | 43.1 µM |  | > 100 µM |  | > 100 µM |  | > 100 µM |  | > 85.2 µM |  | > 100 µM | 45.3
COc1ccc(-c2nc3c(nc2-c2ccc(OC)cc2)C(N)=NS(=O)(=O)N3)cc1 |  | > 100 µM |  |  |  |  | > 100 µM |  |  |  | > 100 µM |  | > 100 µM |  |  |  |  |  |  | 
CSc1nc(CO)c(CO)n1C |  | > 100 µM |  | > 100 µM |  |  | > 100 µM |  | > 100 µM |  | > 100 µM |  | > 100 µM |  | > 100 µM |  | > 100 µM |  | > 100 µM | > 100
O=C(NC(Cc1ccc(Br)cc1)C(=O)O)c1ccc(I)cc1 (stereo unspecified) |  | > 100 µM |  | > 100 µM |  |  | > 100 µM |  | > 100 µM |  | > 100 µM |  | > 100 µM |  | > 100 µM |  | > 100 µM |  | > 100 µM | > 100
